# Where “and” joins values, the source holds several entries; their conditions need not be identical. Equal entries are not always repeated.
# How the values were obtained:
# [1] = instrument: DT, single field, calibrated with ESI Low Concentration Tuning Mix (Agilent)
# [2] = instrument: TW, calibrated with polyalanine and drug standards
structure (smiles),measurement,setting,value
Cn1cnc2c(ncn2[C@@H]2O[C@H](CO)[C@@H](O)[C@H]2O)c1=N [1-METHYLADENOSINE],collision cross section (N2),[1]; [M+H]+,160 Å² and 164.7 Å²
same,collision cross section (N2),[1]; [M+Na]+,170.7 Å²
same,collision cross section (N2),[1]; [M-H]-,162.7 Å²
"CC(=O)c1ccc(O)cc1O [2',4'-DIHYDROXYACETOPHENONE]",collision cross section (N2),[1]; [M+H]+,127.2 Å²
same,collision cross section (N2),[1]; [M-H]-,126.3 Å²
"O=c1cccc(O)[nH]1 [2,6-DIHYDROXYPYRIDINE]",collision cross section (N2),[1]; [M-H]-,113.8 Å²
CC(C)(N)C(=O)O [2-AMINOISOBUTYRATE],collision cross section (N2),[1]; [M+H]+,123.8 Å²
Nc1ccccc1O [2-AMINOPHENOL],collision cross section (N2),[1]; [M+H]+,118.3 Å² and 124.8 Å²
same,collision cross section (N2),[1]; [M-H]-,118 Å²
"O=C(O)C(O)c1ccc(O)c(O)c1 (stereo unspecified) [3,4 DIHYDROXYMANDELATE]",collision cross section (N2),[1]; [M-H]-,137.4 Å²
O=C(O)C1=CC(=O)[C@@H](O)[C@H](O)C1 [3-DEHYDROSHIKIMATE],collision cross section (N2),[1]; [M+Na]+,149.1 Å²
same,collision cross section (N2),[1]; [M-H]-,132 Å²
OCc1cccc(O)c1 [3-HYDROXYBENZYL ALCOHOL],collision cross section (N2),[1]; [M-H]-,122.3 Å²
CC(O)(CC(=O)O)CC(=O)O [3-HYDROXYMETHYLGLUTARATE],collision cross section (N2),[1]; [M+Na]+,135.9 Å²
same,collision cross section (N2),[1]; [M-H]-,126.5 Å²
COc1cc(C(O)C(=O)O)ccc1O (stereo unspecified) [3-METHOXY-4-HYDROXYMANDELATE],collision cross section (N2),[1]; [M-H]-,143.5 Å²
Cn1cnc(N)c2ncnc1-2 [3-METHYLADENINE],collision cross section (N2),[1]; [M+H]+,126.3 Å²
Cn1cncc1CCN [3-METHYLHISTAMINE],collision cross section (N2),[1]; [M+H]+,123.8 Å²
O=C(O)/C=C/c1ccc(O)cc1 [4-COUMARATE],collision cross section (N2),[1]; [M-H]-,131.1 Å²
O=C(O)Cc1cnc[nH]1 [4-IMIDAZOLEACETATE],collision cross section (N2),[1]; [M+H]+,123.9 Å²
Cc1ncc(CO)c(C(=O)O)c1O [4-PYRIDOXATE],collision cross section (N2),[1]; [M+H]+,135.5 Å²
same,collision cross section (N2),[1]; [M+K]+,147.4 Å²
same,collision cross section (N2),[1]; [M+Na]+,150.2 Å²
same,collision cross section (N2),[1]; [M-H]-,130.6 Å²
O=C(O)Cc1c[nH]c2ccc(O)cc12 [5-HYDROXYINDOLEACETATE],collision cross section (N2),[1]; [M+H]+,140.9 Å²
same,collision cross section (N2),[1]; [M+Na]+,148.4 Å²
same,collision cross section (N2),[1]; [M-H]-,137.1 Å²
NC[C@H](O)CC[C@H](N)C(=O)O [5-HYDROXYLYSINE],collision cross section (N2),[1]; [M+H]+,134.9 Å²
same,collision cross section (N2),[1]; [M+Na]+,137.5 Å²
same,collision cross section (N2),[1]; [M-H]-,134 Å²
Cc1cnc(=O)[nH]c1N [5-METHYLCYTOSINE],collision cross section (N2),[1]; [M+H]+,121 Å² and 125.4 Å²
same,collision cross section (N2),[1]; [M+Na]+,135.5 Å²
Nc1ncnc2c1ncn2[C@@H]1O[C@H](COP(=O)(O)O)[C@@H](O)[C@H]1O [ADENOSINE MONOPHOSPHATE],collision cross section (N2),[1]; [M+H]+,171.4 Å²
same,collision cross section (N2),[1]; [M+Na]+,177 Å²
Nc1ncnc2c1ncn2[C@@H]1O[C@H](COP(=O)(O)OP(=O)(O)OP(=O)(O)O)[C@@H](O)[C@H]1O [ADENOSINE TRIPHOSPHATE],collision cross section (N2),[1]; [M+H]+,196.6 Å² and 196.9 Å²
same,collision cross section (N2),[1]; [M+Na-2H]-,193.5 Å²
same,collision cross section (N2),[1]; [M+Na]+,204 Å² and 204.2 Å²
same,collision cross section (N2),[1]; [M-H]-,188.2 Å² and 188.3 Å²
Nc1ncnc2c1ncn2[C@@H]1O[C@H](COP(=O)(O)O)[C@@H](O)[C@H]1O [ADENOSINE-MONOPHOSPHATE],collision cross section (N2),[1]; [M+Na-2H]-,179.5 Å²
same,collision cross section (N2),[1]; [M-H]-,173.1 Å²
CO[C@H]1/C=C/O[C@@]2(C)Oc3c(C)c(O)c4c(O)c(c5c(nc6cc(C)ccn65)c4c3C2=O)NC(=O)/C(C)=C\C=C\[C@H](C)[C@H](O)[C@@H](C)[C@@H](O)[C@@H](C)[C@H](OC(C)=O)[C@@H]1C [RIFAXIMIN],collision cross section (N2),[2]; [M+H]+,267.8 Å²
CCCCCCCCCCCC[C@@H](C(=O)O)[C@H](C)C(=O)O [ROCCELLIC ACID],collision cross section (N2),[2]; [M+Na]+,186.2 Å²
CN(CCOc1ccc(CC2SC(=O)NC2=O)cc1)c1ccccn1 (stereo unspecified) [ROSIGLITAZONE],collision cross section (N2),[2]; [M+H]+,172.6 Å²
C=C(C)[C@H]1Cc2c(ccc3c2O[C@@H]2COc4cc(OC)c(OC)cc4[C@@H]2C3=O)O1 [ROTENONE],collision cross section (N2),[2]; [M+H]+,193.2 Å²
O=[N+]([O-])c1cc([As](=O)(O)O)ccc1O [ROXARSONE],collision cross section (N2),[2]; [M+H]+,145.5 Å²
O=C(Oc1ccccc1C(=O)O)c1ccccc1O [SALSALATE],collision cross section (N2),[2]; [M+H]+,151.3 Å²
COc1cc2c(cc1OC)C(C)NCC2 (stereo unspecified) [SALSOLIDINE],collision cross section (N2),[2]; [M+H]+,150.9 Å²
C[C@@H]1CC[C@@]2(NC1)O[C@H]1C[C@H]3[C@@H]4CC=C5C[C@@H](O)CC[C@]5(C)[C@H]4CC[C@]3(C)[C@H]1[C@@H]2C [SOLASODINE],collision cross section (N2),[2]; [M+H]+,207.8 Å²
CO[C@@H]1[C@@H](OC2OC(C)C(OC3CC(C)(O)C(O)C(C)O3)C(N(C)C)C2O)[C@@H](CC=O)C[C@@H](C)[C@@H](OC2CCC(N(C)C)C(C)O2)/C=C/C=C/C[C@@H](C)OC(=O)C[C@H]1O (stereo partly specified) [SPIRAMYCIN],collision cross section (N2),[2]; [M+H]+,317 Å²
C[C@]12CC[C@H]3[C@@H](CC[C@]4(O)C[C@@H](O)CC[C@]34C=O)[C@@]1(O)CC[C@@H]2C1=CC(=O)OC1 [STROPHANTHIDIN],collision cross section (N2),[2]; [M+H]+,196.7 Å²
OC[C@H]1O[C@H](O[C@]2(CCl)O[C@H](CCl)[C@@H](O)[C@@H]2O)[C@H](O)[C@@H](O)[C@H]1Cl [SUCRALOSE],collision cross section (N2),[2]; [M+Na]+,177.2 Å²
CC(=O)NS(=O)(=O)c1ccc(N)cc1 [SULFACETAMIDE],collision cross section (N2),[2]; [M+H]+,146.9 Å²
Cc1cc(C)nc(NS(=O)(=O)c2ccc(N)cc2)n1 [SULFAMETHAZINE],collision cross section (N2),[2]; [M+H]+,161.7 Å²
Nc1ccc(S(=O)(=O)Nc2nccs2)cc1 [SULFATHIAZOLE],collision cross section (N2),[2]; [M+H]+,150.8 Å²
O=C1C(CCS(=O)c2ccccc2)C(=O)N(c2ccccc2)N1c1ccccc1 (stereo unspecified) [SULFINPYRAZONE],collision cross section (N2),[2]; [M+H]+,193.5 Å²
Cc1noc(NS(=O)(=O)c2ccc(N)cc2)c1C [SULFISOXAZOLE],collision cross section (N2),[2]; [M+H]+,159.1 Å²
CCN1CCCC1CNC(=O)c1cc(S(N)(=O)=O)ccc1OC (stereo unspecified) [SULPIRIDE],collision cross section (N2),[2]; [M+H]+,183.3 Å²
C=CC[C@@H]1/C=C(\C)C[C@H](C)C[C@H](OC)[C@H]2O[C@@](O)(C(=O)C(=O)N3CCCC[C@H]3C(=O)O[C@H](/C(C)=C/[C@@H]3CC[C@@H](O)[C@H](OC)C3)[C@H](C)[C@@H](O)CC1=O)[C@H](C)C[C@@H]2OC [TACROLIMUS],collision cross section (N2),[2]; [M+Na]+,267 Å²
CN1CC(=O)N2[C@H](c3ccc4c(c3)OCO4)c3[nH]c4ccccc4c3C[C@@H]2C1=O [TADALAFIL],collision cross section (N2),[2]; [M+H]+,188.7 Å²
COc1ccc(-c2cc(=O)c3c(OC)c(OC)c(OC)c(OC)c3o2)cc1 [TANGERITIN],collision cross section (N2),[2]; [M+H]+,182 Å²
CN1C(C(=O)Nc2ccccn2)=C(O)c2sccc2S1(=O)=O [TENOXICAM],collision cross section (N2),[2]; [M+H]+,169.8 Å²
C[C@]12CC[C@H]3[C@@H](CCC4=CC(=O)CC[C@@]43C)[C@@H]1CC[C@@H]2O [TESTOSTERONE],collision cross section (N2),[2]; [M+H]+,170.6 Å²
COc1ccc2c(c1)OC[C@@H](Cc1ccc(OC)c(OC)c1)[C@H]2O [TETRAHYDROSAPPANONE A TRIMETHYL ETHER],collision cross section (N2),[2]; [M+H-H2O]+,172 Å²
c1ccc(C2CN3CCSC3=N2)cc1 (stereo unspecified) [TETRAMIZOLE],collision cross section (N2),[2]; [M+H]+,144 Å²
CN1CCN(CC/C=C2/c3ccccc3Sc3ccc(S(=O)(=O)N(C)C)cc32)CC1 [THIOTHIXENE],collision cross section (N2),[2]; [M+H]+,201.9 Å²
CCN(CC)CCOc1ccc2c(c1)C(=O)c1cc(OCCN(CC)CC)ccc1-2 [TILORONE],collision cross section (N2),[2]; [M+H]+,219.8 Å²
Clc1ccc(C(Cn2ccnc2)OCc2ccsc2Cl)c(Cl)c1 (stereo unspecified) [TIOCONAZOLE],collision cross section (N2),[2]; [M+H]+,180.7 Å²
Cc1ccc(S(=O)(=O)NC(=O)NN2CCCCCC2)cc1 [TOLAZAMIDE],collision cross section (N2),[2]; [M+H]+,173.3 Å²
CCCCNC(=O)NS(=O)(=O)c1ccc(C)cc1 [TOLBUTAMIDE],collision cross section (N2),[2]; [M+H]+,161.9 Å²
CC(=O)Oc1ccc(/C=C/c2cc(OC(C)=O)cc(OC(C)=O)c2)cc1 [TRIACETYLRESVERATROL],collision cross section (N2),[2]; [M+H]+,171.1 Å²
CC1(C)O[C@@H]2C[C@H]3[C@@H]4CCC5=CC(=O)C=C[C@]5(C)[C@@]4(F)[C@@H](O)C[C@]3(C)[C@]2(C(=O)CO)O1 [TRIAMCINOLONE ACETONIDE],collision cross section (N2),[2]; [M+H]+,197.1 Å²
Nc1nc(N)c2nc(-c3ccccc3)c(N)nc2n1 [TRIAMTERENE],collision cross section (N2),[2]; [M+H]+,155.4 Å²
CC1(C)C2C[C@@H](O)[C@]3(C)C(CC[C@@]4(C)[C@H](c5ccoc5)OC(=O)[C@H]5O[C@]543)[C@@]2(C)[C@@H](O)C[C@H]1O (stereo partly specified) [TRIDESACETOXYKHIVORIN],collision cross section (N2),[2]; [M+H]+,201.5 Å²
COc1cc(Cc2cnc(N)nc2N)cc(OC)c1OC [TRIMETHOPRIM],collision cross section (N2),[2]; [M+H]+,171.2 Å²
C[C@H](CCC(=O)O)[C@H]1CC[C@H]2[C@@H]3CC[C@@H]4CCCC[C@]4(C)[C@H]3CC[C@]12C [URSOCHOLANIC ACID],collision cross section (N2),[2]; [M+H]+,169.3 Å²
CCC(C)C(=O)O[C@@H]1C[C@@]2(C)[C@H](c3ccoc3)OC(=O)CC23OC2(C)O[C@]14[C@]1(C)[C@@H](CC(=O)OC)C5(C)CC1(O)[C@](O)(C5OC(=O)C1(C)OC1C)[C@@H](OC(C)=O)[C@]34O2 (stereo partly specified) [UTILIN],collision cross section (N2),[2]; [M+H]+,252.5 Å²
COc1c2ccoc2cc2oc(C)cc(=O)c12 [VISNAGIN],collision cross section (N2),[2]; [M+H]+,139.1 Å²
CC1(C)C=Cc2cc3ccc(=O)oc3cc2O1 [XANTHYLETIN],collision cross section (N2),[2]; [M+H]+,148.3 Å²
Cc1cccc(C)c1NC1=NCCCS1 [XYLAZINE],collision cross section (N2),[2]; [M+H]+,147.8 Å²
COc1cc([C@@H]2c3cc4c(c(O)c3C[C@H]3COC(=O)[C@@H]32)OCO4)cc(OC)c1OC [beta-PELTATIN],collision cross section (N2),[2]; [M+H-H2O]+,189 Å²
NC(Cc1ccc(F)cc1)C(=O)O (stereo unspecified) [p-FLUOROPHENYLALANINE],collision cross section (N2),[2]; [M+H]+,141.1 Å²

# From the C3SDB collision cross section collection
